As a reminder, the IC50 is the midpoint of a concentration-inhibition curve.

TRKA, sequence (P04629 441-796): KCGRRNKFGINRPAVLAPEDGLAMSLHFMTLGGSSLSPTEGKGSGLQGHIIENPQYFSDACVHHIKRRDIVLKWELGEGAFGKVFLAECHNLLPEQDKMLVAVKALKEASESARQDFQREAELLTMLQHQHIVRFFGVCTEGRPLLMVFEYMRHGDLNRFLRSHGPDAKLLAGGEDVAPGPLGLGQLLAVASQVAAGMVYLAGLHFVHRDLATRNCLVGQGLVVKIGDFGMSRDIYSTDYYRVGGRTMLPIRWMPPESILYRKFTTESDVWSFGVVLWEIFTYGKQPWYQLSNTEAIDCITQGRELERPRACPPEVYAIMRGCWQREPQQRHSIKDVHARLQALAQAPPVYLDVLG

This assay concerns the target TRKA (Homo sapiens (Human), UniProt P04629). The assay can be described thus: Isolated TRK enzyme assay (HTRF KinEASE-TK), TRKA. It is filed as biochemical. To be noted: read-out: Trka enzyme (IC50). A general note: In TR-FRET formats the signal depends on donor and acceptor labels being close together.
On to `CC(C)n1cc(C(=O)c2cncc(NC(=O)Cn3ccnc3)c2)c2cncnc21` [Example 372, 2-Imidazol-1-yl-N-[5-(7-isopropyl-7H-pyrrolo[2,3-d]pyrimidine-5-carbonyl)-pyridin-3-yl]-acetamide], for which the IC50 was found to be 9800 nM.
As for `Cc1csc2nc(CC(=O)Nc3cncc(C(=O)c4cn(C(C)C)c5ncncc45)c3)cn12` [Example 373, N-[5-(7-Isopropyl-7H-pyrrolo[2,3-d]pyrimidine-5-carbonyl)-pyridin-3-yl]-2-(3-methyl-imidazo[2,1-b]thiazol-6-yl)-acetamide], the half-inhibitory concentration (IC50) came to 813 nM.
To `CC(C)n1cc(C(=O)c2cncc(NC(=O)Cc3ccn(-c4ccc(O)cc4)c3)c2)c2cncnc21` [Example 374, 2-[1-(4-Hydroxy-phenyl)-1H-pyrrol-3-yl]-N-[5-(7-isopropyl-7H-pyrrolo[2,3-d]pyrimidine-5-carbonyl)-pyridin-3-yl]-acetamide] belongs 224 nM.
As for `CC(C)n1cc(C(=O)c2cncc(NC(=O)Cc3cnc4ncnn4c3)c2)c2cncnc21` [Example 375, N-[5-(7-Isopropyl-7H-pyrrolo[2,3-d]pyrimidine-5-carbonyl)-pyridin-3-yl]-2-[1,2,4]triazolo[1,5-a]pyrimidin-6-yl-acetamide], the figure is 9800 nM; as for `CC(C)n1cc(C(=O)c2cncc(NC(=O)Cc3cnccn3)c2)c2cncnc21` [Example 376, N-[5-(7-Isopropyl-7H-pyrrolo[2,3-d]pyrimidine-5-carbonyl)-pyridin-3-yl]-2-pyrazin-2-yl-acetamide], 5100 nM; as for `CC(C)n1cc(C(=O)c2cncc(NC(=O)Cn3cc(-c4cccc(O)c4)nn3)c2)c2cncnc21` [Example 377, 2-[4-(3-Hydroxy-phenyl)-1,2,3-triazol-1-yl]-N-[5-(7-isopropyl-7H-pyrrolo[2,3-d]pyrimidine-5-carbonyl)-pyridin-3-yl]-acetamide], 2630 nM.
To `CC(C)n1cc(C(=O)c2cncc(NC(=O)Cn3nnnc3-c3ccccc3)c2)c2cncnc21` [Example 378, N-[5-(7-Isopropyl-7H-pyrrolo[2,3-d]pyrimidine-5-carbonyl)-pyridin-3-yl]-2-(5-phenyl-tetrazol-1-yl)-acetamide] belongs 716 nM; to `CC(C)n1cc(C(=O)c2cncc(NC(=O)c3nccc4occc34)c2)c2cncnc21` [Example 380, Furo[3,2-c]pyridine-4-carboxylic acid [5-(7-isopropyl-7H-pyrrolo[2,3-d]pyrimidine-5-carbonyl)-pyridin-3-yl]-amide], 422 nM; to `Cc1nonc1C(=O)Nc1cncc(C(=O)c2cn(C(C)C)c3ncncc23)c1` [Example 381, 4-Methyl-furazan-3-carboxylic acid [5-(7-isopropyl-7H-pyrrolo[2,3-d]pyrimidine-5-carbonyl)-pyridin-3-yl]-amide], 2780 nM.
With `CC(C)n1cc(C(=O)c2cncc(NC(=O)c3nn(C)c4ccccc34)c2)c2cncnc21` [Example 382, 1-Methyl-1H-indazole-3-carboxylic acid [5-(7-isopropyl-7H-pyrrolo[2,3-d]pyrimidine-5-carbonyl)-pyridin-3-yl]-amide], the 50% inhibitory concentration (IC50) stood at 45.7 nM.
To `CC(C)n1cc(C(=O)c2cncc(NC(=O)c3cc4ccccc4[nH]3)c2)c2cncnc21` [Example 383, 1H-Indole-2-carboxylic acid [5-(7-isopropyl-7H-pyrrolo[2,3-d]pyrimidine-5-carbonyl)-pyridin-3-yl]-amide] belongs 130 nM; to `Cc1nc(C(F)(F)F)c(C(=O)Nc2cncc(C(=O)c3cn(C(C)C)c4ncncc34)c2)s1` [Example 384, 2-Methyl-4-trifluoromethyl-thiazole-5-carboxylic acid [5-(7-isopropyl-7H-pyrrolo[2,3-d]pyrimidine-5-carbonyl)-pyridin-3-yl]-amide], 4770 nM; to `CC(C)n1cc(C(=O)c2cncc(NC(=O)c3ncoc3C3CC3)c2)c2cncnc21` [Example 385, 5-Cyclopropyl-oxazole-4-carboxylic acid [5-(7-isopropyl-7H-pyrrolo[2,3-d]pyrimidine-5-carbonyl)-pyridin-3-yl]-amide], 81.6 nM.
As for `CC(C)n1cc(C(=O)c2cncc(NC(=O)c3cccnn3)c2)c2cncnc21` [Example 386, Pyridazine-3-carboxylic acid [5-(7-isopropyl-7H-pyrrolo[2,3-d]pyrimidine-5-carbonyl)-pyridin-3-yl]-amide], the IC50 worked out at 9800 nM.
As for `Cc1n[nH]c(C(F)(F)F)c1C(=O)Nc1cncc(C(=O)c2cn(C(C)C)c3ncncc23)c1` [Example 387, 3-Methyl-5-trifluoromethyl-1H-pyrazole-4-carboxylic acid [5-(7-isopropyl-7H-pyrrolo[2,3-d]pyrimidine-5-carbonyl)-pyridin-3-yl]-amide], the figure is 6880 nM; as for `Cc1ccnc(C(=O)Nc2cncc(C(=O)c3cn(C(C)C)c4ncncc34)c2)c1` [Example 388, 4-Methyl-pyridine-2-carboxylic acid[5-(7-isopropyl-7H-pyrrolo[2,3-d]pyrimidine-5-carbonyl)-pyridin-3-yl]-amide], 165 nM.
To `CC(C)n1cc(C(=O)c2cncc(NC(=O)c3c[nH]nc3C3CCC3)c2)c2cncnc21` [Example 389, 3-Cyclobutyl-1H-pyrazole-4-carboxylic acid [5-(7-isopropyl-7H-pyrrolo[2,3-d]pyrimidine-5-carbonyl)-pyridin-3-yl]-amide] belongs 84.3 nM.
To `CC(C)n1cc(C(=O)c2cncc(NC(=O)c3cnco3)c2)c2cncnc21` [Example 390, Oxazole-5-carboxylic acid [5-(7-isopropyl-7H-pyrrolo[2,3-d]pyrimidine-5-carbonyl)-pyridin-3-yl]-amide] belongs 9800 nM.
Consider `Cc1c[nH]c(C(=O)Nc2cncc(C(=O)c3cn(C(C)C)c4ncncc34)c2)n1` [Example 391, 4-Methyl-1H-imidazole-2-carboxylic acid [5-(7-isopropyl-7H-pyrrolo[2,3-d]pyrimidine-5-carbonyl)-pyridin-3-yl]-amide], for which the IC50 stood at 246 nM.
To `CC(C)n1cc(C(=O)c2cncc(NC(=O)c3cc4cc[nH]c4cn3)c2)c2cncnc21` [Example 392, 1H-Pyrrolo[2,3-c]pyridine-5-carboxylic acid [5-(7-isopropyl-7H-pyrrolo[2,3-d]pyrimidine-5-carbonyl)-pyridin-3-yl]-amide] belongs 135 nM; to `Cc1cnc(C(=O)Nc2cncc(C(=O)c3cn(C(C)C)c4ncncc34)c2)cn1` [Example 393, 5-Methyl-pyrazine-2-carboxylic acid[5-(7-isopropyl-7H-pyrrolo[2,3-d]pyrimidine-5-carbonyl)-pyridin-3-yl]-amide], 1360 nM.
To `Cc1nn(C)cc1C(=O)Nc1cncc(C(=O)c2cn(C(C)C)c3ncncc23)c1` [Example 394, 1,3-Dimethyl-1H-pyrazole-4-carboxylic acid [5-(7-isopropyl-7H-pyrrolo[2,3-d]pyrimidine-5-carbonyl)-pyridin-3-yl]-amide] belongs 7120 nM; to `CC(C)n1cc(C(=O)c2cncc(NC(=O)c3cnc4cn[nH]c4c3)c2)c2cncnc21` [Example 395, 1H-Pyrazolo[4,3-b]pyridine-6-carboxylic acid [5-(7-isopropyl-7H-pyrrolo[2,3-d]pyrimidine-5-carbonyl)-pyridin-3-yl]-amide], 1350 nM.

The values above are taken from patent publication US8846698B2, “Pyrrolo[2,3-d]pyrimidine tropomysin-related kinase inhibitors” (Pfizer Limited, priority 2011, dated 2014).
